IC50 and EC50 data for two compounds are collected here from ChEMBL document CHEMBL1201862, “PubChem BioAssay data set” (2004).

The source made the active and inactive calls.

Test [1] addresses Serine/threonine-protein phosphatase (Homo sapiens, UniProt Q9BPW0). Nature of the test: inhibition of protein phosphatase 5 activity – biochemical, fluorescence, dose response (AID 2395).
Test [2] deals with T1, Oxysterols receptor LXR-beta (Homo sapiens, UniProt P55055).
T1 sequence (P55055 whole entry): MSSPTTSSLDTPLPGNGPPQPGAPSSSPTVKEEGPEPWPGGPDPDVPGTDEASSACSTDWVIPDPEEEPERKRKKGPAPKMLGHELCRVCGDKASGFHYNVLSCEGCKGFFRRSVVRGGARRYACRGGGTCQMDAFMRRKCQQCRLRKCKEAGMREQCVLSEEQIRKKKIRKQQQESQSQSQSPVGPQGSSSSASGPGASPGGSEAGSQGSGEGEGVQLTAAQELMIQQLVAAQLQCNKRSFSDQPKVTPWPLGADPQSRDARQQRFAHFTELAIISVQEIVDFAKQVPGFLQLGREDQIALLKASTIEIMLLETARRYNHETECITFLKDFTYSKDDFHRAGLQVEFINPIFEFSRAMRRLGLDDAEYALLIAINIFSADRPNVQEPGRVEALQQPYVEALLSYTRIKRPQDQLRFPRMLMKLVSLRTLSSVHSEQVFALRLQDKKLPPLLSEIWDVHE
The experiment in a line: LXR agonists, Gal4 luciferase reporter, dose response, counter-screen for ssDAF-12 agonist project, cell-based, luminescence, HEK293, S. stercoralis campaign (AID 720737). The format is functional. Particulars: read-out: IC50 (the source's name).

A short description of test [3]: Luminescence-based cell-based high throughput dose response assay to identify activators of the DAF-12 from the parasite S. stercoralis (ssDAF-12). It counts as functional.
The target in another test is T2, Insulin-degrading enzyme (Homo sapiens, UniProt P14735).
T2 sequence (P14735 whole entry): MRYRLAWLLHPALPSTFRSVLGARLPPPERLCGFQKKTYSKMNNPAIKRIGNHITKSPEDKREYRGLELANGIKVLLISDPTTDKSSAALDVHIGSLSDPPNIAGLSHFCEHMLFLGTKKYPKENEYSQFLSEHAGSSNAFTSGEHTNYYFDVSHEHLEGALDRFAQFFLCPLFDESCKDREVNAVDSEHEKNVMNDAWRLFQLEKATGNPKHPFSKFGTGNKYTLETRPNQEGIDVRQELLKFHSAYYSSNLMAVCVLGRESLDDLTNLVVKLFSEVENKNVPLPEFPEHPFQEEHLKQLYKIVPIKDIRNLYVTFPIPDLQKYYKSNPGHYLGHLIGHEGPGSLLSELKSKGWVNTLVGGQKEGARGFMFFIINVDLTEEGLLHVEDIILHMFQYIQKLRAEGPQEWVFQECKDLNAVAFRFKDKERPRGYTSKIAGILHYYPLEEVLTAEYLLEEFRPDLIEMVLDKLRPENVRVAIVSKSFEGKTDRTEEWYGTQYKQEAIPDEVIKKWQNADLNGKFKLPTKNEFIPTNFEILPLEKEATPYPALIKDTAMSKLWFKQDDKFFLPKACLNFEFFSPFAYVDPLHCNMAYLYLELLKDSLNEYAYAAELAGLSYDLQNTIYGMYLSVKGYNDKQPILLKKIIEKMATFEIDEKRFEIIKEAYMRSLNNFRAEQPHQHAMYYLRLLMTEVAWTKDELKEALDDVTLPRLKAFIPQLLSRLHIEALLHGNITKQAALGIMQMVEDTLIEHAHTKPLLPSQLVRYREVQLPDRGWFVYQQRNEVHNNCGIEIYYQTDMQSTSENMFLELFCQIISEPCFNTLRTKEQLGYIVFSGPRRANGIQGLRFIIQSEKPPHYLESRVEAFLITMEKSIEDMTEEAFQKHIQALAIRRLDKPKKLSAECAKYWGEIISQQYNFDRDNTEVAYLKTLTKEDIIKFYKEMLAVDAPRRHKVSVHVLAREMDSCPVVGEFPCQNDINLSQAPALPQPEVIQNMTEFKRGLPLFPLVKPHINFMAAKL
Nature of the test: Dose Response: Fluorescence polarization-based cell-based high throughput dose response assay for inhibitors of insulin-degrading enzyme (IDE). [Related pubchem assays: 434962 (Primary screen (IDE inhibitors in singlicate)), 449730 (Counterscreen (Cytotoxicity in triplicate)), 435028 (Confirmation (IDE inhibitors in triplicate)), 434984 (Summary …. It counts as functional.

Chain of Serine/threonine-protein phosphatase (Q9BPW0 whole entry): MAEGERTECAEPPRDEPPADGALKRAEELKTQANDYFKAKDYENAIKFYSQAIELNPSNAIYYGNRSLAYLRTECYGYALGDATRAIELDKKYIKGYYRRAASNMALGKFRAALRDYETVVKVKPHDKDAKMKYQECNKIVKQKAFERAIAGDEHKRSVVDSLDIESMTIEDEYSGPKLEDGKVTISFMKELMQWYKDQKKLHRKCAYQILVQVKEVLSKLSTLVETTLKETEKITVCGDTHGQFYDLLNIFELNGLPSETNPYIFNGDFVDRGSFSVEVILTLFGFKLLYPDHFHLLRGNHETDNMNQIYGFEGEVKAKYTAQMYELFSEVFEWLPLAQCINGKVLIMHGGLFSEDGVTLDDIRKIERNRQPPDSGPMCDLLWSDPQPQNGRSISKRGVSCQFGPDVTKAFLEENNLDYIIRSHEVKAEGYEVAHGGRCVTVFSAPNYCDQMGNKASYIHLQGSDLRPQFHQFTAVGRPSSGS

Consider `COc1ccc(/C=N/Nc2cc(N(C)C)nc(N(C)C)n2)cc1`, for which the IC50 in test [1] is 4.01 µM (active).
For the compound `C/C(=N\c1cccc(C)c1)c1sc2ccccc2c1O`, the EC50 in test [2] was > 67.6 µM (inactive). For the same compound, the IC50 in test [3] is > 67.6 µM (inactive); against Insulin-degrading enzyme it was 22.7 µM (not active).

By IC50 is commonly meant the concentration at which inhibition is half-maximal.
